Reference: patent publication US4463004A, “Dioxazabicyclic derivatives” (Delalande S.A., priority 1981, dated 1984)

Assays:
mice = assay: analgesia test using phenylbenzoquinone; format: in vivo; conditions: Mus musculus, ip, read-out: Analgesia test ED 50
Method: Exp. Biol. Med. 95, 729(1957).
The compounds of the invention were administered intraperitoneally.

[1] = Acute toxicity, intraperitoneal (Miller and Tainter); conditions: mouse, in vivo, ip; mice, i.p.; read-out: Acute toxicity LD 50
Method: Acute toxicity was evaluated intraperitoneally in mice according to the method described by MILLER and TAINTER in Proc. Soc. Exp. Biol. Med. 57, 261 (1944).

Structure (SMILES)	ED50 (mice) [mg/kg]	LD50 [1] [mg/kg]
CC(C)(C)C12CNCC(CO1)O2 (stereo not drawn) [Code number 1]	18	400
c1csc(C23CNCC(CO2)O3)c1 (stereo not drawn) [Code number 4]	24	> 400
Fc1ccc(C23CNCC(CO2)O3)cc1 (stereo not drawn) [Code number 7, 5-parafluorophenyl-6,8-dioxa-3-azabicyclo [3.2.1] octane meleate]	10	300
Clc1cccc(C23CNCC(CO2)O3)c1 (stereo not drawn) [Code number 9]	10	240
COc1ccccc1C12CNCC(CO1)O2 (stereo not drawn) [compound 14]	8	300
N#Cc1ccc(C23CNCC(CO2)O3)cc1 (stereo not drawn) [compound 19]	19	280
O=[N+]([O-])c1ccc(C23CNCC(CO2)O3)cc1 (stereo not drawn) [compound 21]	10	290
Clc1ccc(C23CNCC(CO2)O3)cc1Cl (stereo not drawn) [compound 23]	10	300
CCN1CC2COC(c3ccc(F)cc3)(C1)O2 (stereo not drawn) [compound 25]	14	280
c1ccc(CN2CC3COC(C4CCCCC4)(C2)O3)cc1 (stereo not drawn) [compound 30]	26	> 400
Fc1ccc(C23CCCNCC(CO2)O3)cc1 (stereo not drawn) [compound 32]	9	140
C1C2CC3CC1CC(C14CNCC(CO1)O4)(C2)C3 (stereo not drawn) [compound 36]	30	185
c1ccc2cc(C34CNCC(CO3)O4)ccc2c1 (stereo not drawn) [compound 39]	8	310
c1ccc(-c2ccc(C34CNCC(CO3)O4)cc2)cc1 (stereo not drawn) [compound 40]	24	310
c1cc(C23CNCC(CO2)O3)ccc1C1CCCCC1 (stereo not drawn) [compound 42]	15	> 400
CC(=O)Nc1ccc(C23CNCC(CO2)O3)cc1 (stereo not drawn) [compound 44]	7	380
c1cncc(C23CNCC(CO2)O3)c1 (stereo not drawn) [compound 48]	58	> 400
O=C(O)c1ccc(C23CNCC(CO2)O3)cc1 (stereo not drawn) [compound 54]	38	> 400
COc1ccc2cc(C34CNCC(CO3)O4)ccc2c1 (stereo not drawn) [compound 56]	21	240
c1ccc2c(C34CNCC(CO3)O4)cccc2c1 (stereo not drawn) [compound 58]	28	160
O=C(c1ccccc1)c1cccc(C23CNCC(CO2)O3)c1 (stereo not drawn) [compound 59]	13.5	155
